Like-named read-outs stand apart in the source and are kept apart here.
Tests used:
α-D-giucosidase = biological target: T1, α-D-giucosidase (Saccharomyces cerevisiae, UniProt P53341); assay: Glycosidase assay, α-D-glucosidase (Saccharomyces cerevisiae); type: biochemical; conditions: 0.2 mM, negative value = stabilisation/promotion, read-out: percentage inhibition
T1 construct: purchased Sigma
Description: (§1) All enzymes and para-nitrophenyl substrates were purchased from Sigma, with the exception of beta-mannosidase which came from Megazyme. Enzymes were assayed at 27° C. in 0.1M citric acid/0.2M disodium hydrogen phosphate buffers at the optimum pH for the enzyme. The incubation mixture consisted of 10 μl enzyme solution, 10 μl of 1 mg/ml aqueous solution of sample and 50 μl of the appropriate 5 mM para-nitrophenyl substrate made up in buffer at the optimum pH for the enzyme. The reactions were stopped by addition of 70 μl 0.4M glycine (pH 10.4) during the exponential phase of the reaction, which had been determined at the beginning using uninhibited assays in which water replaced inhibitor. Final absorbances were read at 405 nm using a Versamax microplate reader (Molecular Devices). Assays were carried out in triplicate, and the values given are means of the three replicates per assay. The method was carried out as described in Watson et al. (1997) Phytochemistry 46 (2): 255-259.

α-D-glucosidase [1] = assay: Glycosidase assay, α-D-glucosidase (Bacillus sterothermophilus); type: biochemical; conditions: 0.2 mM, negative value = stabilisation/promotion
Description: as §1

α-D-glucosidase [2] = biological target: T2, α-D-glucosidase (Oryza sativa subsp. japonica, UniProt Q653V7); assay: Glycosidase assay, α-D-glucosidase (rice); type: biochemical; conditions: 0.2 mM, Rice (Oryza saliva), negative value = stabilisation/promotion, read-out: percentage inhibition
T2 construct: purchased Sigma
Description: as §1

β-D-glucosidase = assay: Glycosidase assay, β-D-glucosidase (almond); type: biochemical; conditions: 0.2 mM, Almond (Prunus sp.), negative value = stabilisation/promotion
Description: as §1

α-D-galactosidase = biological target: T3, α-D-galactosidase (Coffea arabica, UniProt Q42656); assay: Glycosidase assay, α-D-galactosidase (green coffee bean); type: biochemical; conditions: 0.2 mM, Green coffee bean (Coffea sp.), negative value = stabilisation/promotion, read-out: percentage inhibition
T3 construct: purchased Sigma
Description: as §1

β-D-galactosidase = assay: Glycosidase assay, β-D-galactosidase (bovine liver); type: biochemical; conditions: 0.2 mM, negative value = stabilisation/promotion
Description: as §1

α-L-fucosidase = biological target: T4, α-L-fucosidase (Bos taurus, UniProt Q2KIM0); assay: Glycosidase assay, α-L-fucosidase (bovine kidney); type: biochemical; conditions: 0.2 mM, negative value = stabilisation/promotion, read-out: percentage inhibition
T4 construct: purchased Sigma
T4 sequence (Q2KIM0 23-468): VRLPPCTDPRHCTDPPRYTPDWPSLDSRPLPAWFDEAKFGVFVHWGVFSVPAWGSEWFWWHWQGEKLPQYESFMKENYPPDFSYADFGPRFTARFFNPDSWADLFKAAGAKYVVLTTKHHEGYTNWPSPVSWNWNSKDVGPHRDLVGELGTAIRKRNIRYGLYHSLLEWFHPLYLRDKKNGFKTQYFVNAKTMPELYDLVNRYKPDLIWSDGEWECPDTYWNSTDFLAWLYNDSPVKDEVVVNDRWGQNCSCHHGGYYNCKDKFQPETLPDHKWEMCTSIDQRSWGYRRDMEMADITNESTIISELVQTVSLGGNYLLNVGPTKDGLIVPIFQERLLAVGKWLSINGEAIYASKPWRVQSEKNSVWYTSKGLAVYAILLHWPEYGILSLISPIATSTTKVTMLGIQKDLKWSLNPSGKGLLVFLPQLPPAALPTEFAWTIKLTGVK
Description: as §1

α-D-mannosidase = biological target: T5, α-D-mannosidase (Canavalia ensiformis, UniProt C0HJB3); assay: Glycosidase assay, α-D-mannosidase (jack bean); type: biochemical, Jack bean (Canavalia ensiformis); conditions: read-out: percentage inhibition
T5 construct: purchased Sigma
T5 sequence (C0HJB3 1-981): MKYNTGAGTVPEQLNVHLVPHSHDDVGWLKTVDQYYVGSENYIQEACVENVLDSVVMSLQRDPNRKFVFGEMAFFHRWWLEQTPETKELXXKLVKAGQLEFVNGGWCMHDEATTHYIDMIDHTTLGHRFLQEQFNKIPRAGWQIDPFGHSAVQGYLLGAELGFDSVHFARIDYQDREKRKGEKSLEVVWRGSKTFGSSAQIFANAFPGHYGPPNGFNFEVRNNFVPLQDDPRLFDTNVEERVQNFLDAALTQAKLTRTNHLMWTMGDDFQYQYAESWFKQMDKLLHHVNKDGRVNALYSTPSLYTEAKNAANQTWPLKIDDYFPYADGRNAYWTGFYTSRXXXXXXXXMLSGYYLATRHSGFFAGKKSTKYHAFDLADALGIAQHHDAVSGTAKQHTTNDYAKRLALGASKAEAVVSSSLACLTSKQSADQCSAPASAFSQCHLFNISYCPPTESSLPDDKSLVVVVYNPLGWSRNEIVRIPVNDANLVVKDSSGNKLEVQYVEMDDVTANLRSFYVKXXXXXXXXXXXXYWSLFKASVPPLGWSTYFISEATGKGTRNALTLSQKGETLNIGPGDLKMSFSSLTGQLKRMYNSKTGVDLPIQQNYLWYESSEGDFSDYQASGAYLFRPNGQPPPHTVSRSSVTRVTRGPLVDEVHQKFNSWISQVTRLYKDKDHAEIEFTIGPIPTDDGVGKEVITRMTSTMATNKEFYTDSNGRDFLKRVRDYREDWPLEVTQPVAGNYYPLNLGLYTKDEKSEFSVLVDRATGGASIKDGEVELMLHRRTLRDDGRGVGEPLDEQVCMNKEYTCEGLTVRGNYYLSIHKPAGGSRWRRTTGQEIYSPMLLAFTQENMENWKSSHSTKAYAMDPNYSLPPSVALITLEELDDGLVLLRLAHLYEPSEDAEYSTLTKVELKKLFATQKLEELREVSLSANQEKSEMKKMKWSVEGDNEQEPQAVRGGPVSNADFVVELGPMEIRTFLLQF
Description: as §1

β-D-mannosidase = assay: Glycosidase assay, β-D-mannosidase (Cellullomonas fimi); type: biochemical; conditions: 0.2 mM, negative value = stabilisation/promotion
Description: as §1

Naringinase = assay: Glycosidase assay, naringinase (Penicillium decumbens); type: biochemical; conditions: 0.2 mM, negative value = stabilisation/promotion
Description: as §1

[3] = test system: N-acetyl-β-D-glucosaminidase; assay: Glycosidase assay, N-acetyl-β-D-glucosaminidase (bovine kidney); type: biochemical; conditions: for percentage inhibition: 0.2 mM, N-acetyl-β-D-glucosaminidase, Bovine kidney, negative value = stabilisation/promotion; for IC50: bovine hexosaminidase, read-out: IC50 against the bovine hexosaminidase
Description: as §1

[4] = test system: N-acetyl-β-D-glucosaminidase; assay: Glycosidase assay, N-acetyl-β-D-glucosaminidase (jack bean); type: biochemical; conditions: 0.2 mM, negative value = stabilisation/promotion
Description: as §1

[5] = biological target: T6, N-acetyl-β-D-hexosaminidase (Aspergillus oryzae, UniProt Q8J2T0); assay: Glycosidase assay, N-acetyl-β-D-hexosaminidase (Aspergillus oryzae); type: biochemical; conditions: 0.2 mM, negative value = stabilisation/promotion, read-out: percentage inhibition
T6 construct: purchased Sigma
Description: as §1

Amyloglucosidase = biological target: T7, Amyloglucosidase (Aspergillus niger, UniProt P69328); assay: Glycosidase assay, amyloglucosidase (Aspergillus niger); type: biochemical; conditions: 0.2 mM, negative value = stabilisation/promotion, read-out: percentage inhibition
T7 construct: purchased Sigma
Description: as §1

β-glucuronidase [6] = biological target: T8, β-glucuronidase (Bos taurus, UniProt A3KMY8); assay: Glycosidase assay, β-glucuronidase (bovine liver); type: biochemical; conditions: for inhibition at 200 µM: read-out: percentage inhibition
T8 sequence (A3KMY8 1-652): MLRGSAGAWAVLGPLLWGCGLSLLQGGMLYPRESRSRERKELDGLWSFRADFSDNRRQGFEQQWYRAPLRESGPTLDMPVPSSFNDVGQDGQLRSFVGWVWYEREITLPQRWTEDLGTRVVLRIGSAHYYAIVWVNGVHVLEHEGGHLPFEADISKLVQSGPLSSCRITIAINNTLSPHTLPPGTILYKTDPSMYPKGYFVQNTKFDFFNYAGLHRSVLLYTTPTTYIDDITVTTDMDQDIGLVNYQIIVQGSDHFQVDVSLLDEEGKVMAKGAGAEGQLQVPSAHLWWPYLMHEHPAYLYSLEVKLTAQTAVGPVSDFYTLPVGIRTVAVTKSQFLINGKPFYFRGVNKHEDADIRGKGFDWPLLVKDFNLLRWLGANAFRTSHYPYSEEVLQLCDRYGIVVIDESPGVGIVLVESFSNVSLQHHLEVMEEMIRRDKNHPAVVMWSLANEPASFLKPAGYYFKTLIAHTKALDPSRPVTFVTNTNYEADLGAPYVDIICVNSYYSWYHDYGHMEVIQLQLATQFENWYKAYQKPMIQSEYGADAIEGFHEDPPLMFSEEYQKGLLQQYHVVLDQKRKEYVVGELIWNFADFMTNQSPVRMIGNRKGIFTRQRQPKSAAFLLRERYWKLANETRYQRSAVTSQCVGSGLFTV
Description: as §1

β-glucuronidase [7] = biological target: T9, β-glucuronidase (Escherichia coli, UniProt P05804); assay: Glycosidase assay, β-glucuronidase (E. coli); type: biochemical; conditions: 0.2 mM, negative value = stabilisation/promotion, read-out: percentage inhibition
T9 construct: purchased Sigma
Description: as §1

glycogen phosphorylase b = biological target: T10, glycogen phosphorylase b (Oryctolagus cuniculus, UniProt P00489); assay: Glycogen phosphorylase (GPb) activity; type: biochemical
T10 construct: purchased Sigma-Aldrich Fine Chemicals (St. Louis, Mo, USA)
T10 sequence (P00489 1-843): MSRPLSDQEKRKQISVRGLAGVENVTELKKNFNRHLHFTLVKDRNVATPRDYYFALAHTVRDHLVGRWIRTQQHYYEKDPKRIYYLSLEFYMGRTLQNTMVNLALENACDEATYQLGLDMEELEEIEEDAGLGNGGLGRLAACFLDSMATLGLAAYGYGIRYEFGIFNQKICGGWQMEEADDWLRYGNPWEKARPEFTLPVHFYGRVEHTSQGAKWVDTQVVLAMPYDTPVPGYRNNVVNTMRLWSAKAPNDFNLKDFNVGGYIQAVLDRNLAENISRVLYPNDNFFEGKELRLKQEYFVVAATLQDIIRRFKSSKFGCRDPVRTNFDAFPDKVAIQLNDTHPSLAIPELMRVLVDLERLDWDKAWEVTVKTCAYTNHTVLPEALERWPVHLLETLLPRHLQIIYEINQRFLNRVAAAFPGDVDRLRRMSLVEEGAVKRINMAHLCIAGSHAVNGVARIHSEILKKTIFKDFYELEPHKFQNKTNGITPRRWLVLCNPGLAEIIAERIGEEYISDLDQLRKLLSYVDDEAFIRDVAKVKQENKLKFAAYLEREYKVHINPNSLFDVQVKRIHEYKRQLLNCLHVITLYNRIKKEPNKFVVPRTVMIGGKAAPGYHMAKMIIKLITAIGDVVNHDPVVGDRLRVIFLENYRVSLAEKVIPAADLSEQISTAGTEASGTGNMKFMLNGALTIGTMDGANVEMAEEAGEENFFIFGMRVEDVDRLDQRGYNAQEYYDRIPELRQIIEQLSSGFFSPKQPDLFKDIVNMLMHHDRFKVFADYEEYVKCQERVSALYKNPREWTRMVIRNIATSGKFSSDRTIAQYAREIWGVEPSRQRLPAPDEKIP
Description: N2-beta-D-Fructopyranos-1-yl-Arginine and 1-Deoxy-1-(N-γ-aminobutyric acid)fructose were tested on glycogen phosphorylase and found to give weak inhibition (14.2 and 5.5% respectively at 400 μM.
Materials. Phosphoglucomutase, glucose-6-phosphate dehydrogenase, glucose-1,6-bisphosphate, glycogen phosphorylase b, α-D-glucose 1-phosphate dipotassium salt hydrate were purchased from Sigma-Aldrich Fine Chemicals (St. Louis, Mo, USA). Glycogen and caffeine were purchased from Nacalai Tesque (Kyoto, Japan). Other chemicals were from Wako Pure Chemical industries (Osaka, Japan).
Measurement of GPb activity. GPb activity was measured in the direction of glycogenolysis using 2 mg/mL glycogen as the substrate in 45 mM phosphate buffer at pH 6.8, containing 0.1 mM EDTA. […] The rate of enzyme-catalysed reaction in the medium can be followed as the increase in absorbance at 340 nm and 25° C. due to the formation of NADPH. GPb activity was also measured in the direction of glycogen synthesis using 25 mM glucose-1-P as substrate in a 250 mM Tris-malate buffer (pH 6.8), containing 5 mg/mL glycogen, 1 mM AMP, 15 mM cysteine, and glycogen phosphorylase b. […] Pi was measured by the Fiske-Subbarow method. The rate of enzyme-catalysed reaction in the medium was followed as the Increase in absorbance at 660 nm.

T6 sequence (Q8J2T0 97-600): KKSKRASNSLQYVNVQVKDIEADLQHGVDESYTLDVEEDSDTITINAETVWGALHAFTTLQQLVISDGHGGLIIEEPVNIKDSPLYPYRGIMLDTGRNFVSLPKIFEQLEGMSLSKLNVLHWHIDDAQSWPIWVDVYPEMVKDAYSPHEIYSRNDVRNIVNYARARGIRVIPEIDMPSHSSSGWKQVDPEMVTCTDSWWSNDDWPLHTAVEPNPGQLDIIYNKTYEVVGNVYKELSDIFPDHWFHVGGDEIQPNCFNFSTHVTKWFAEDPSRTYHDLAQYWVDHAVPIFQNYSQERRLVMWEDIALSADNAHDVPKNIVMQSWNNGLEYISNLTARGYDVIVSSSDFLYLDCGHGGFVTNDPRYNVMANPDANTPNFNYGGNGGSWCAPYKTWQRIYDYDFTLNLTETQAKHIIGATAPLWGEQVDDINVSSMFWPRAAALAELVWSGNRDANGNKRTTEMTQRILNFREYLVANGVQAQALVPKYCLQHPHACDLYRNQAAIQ
T3 sequence (Q42656 16-378): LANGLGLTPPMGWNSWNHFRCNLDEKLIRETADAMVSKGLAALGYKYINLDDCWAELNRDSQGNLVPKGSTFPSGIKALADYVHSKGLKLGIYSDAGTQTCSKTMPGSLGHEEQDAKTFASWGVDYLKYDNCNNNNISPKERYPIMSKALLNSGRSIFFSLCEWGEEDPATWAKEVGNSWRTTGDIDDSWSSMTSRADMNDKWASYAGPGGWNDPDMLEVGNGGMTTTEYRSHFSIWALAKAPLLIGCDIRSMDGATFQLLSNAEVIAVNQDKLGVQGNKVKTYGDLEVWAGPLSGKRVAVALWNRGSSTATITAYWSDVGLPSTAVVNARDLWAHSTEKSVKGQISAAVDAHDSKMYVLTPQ
T9 sequence (P05804 whole entry): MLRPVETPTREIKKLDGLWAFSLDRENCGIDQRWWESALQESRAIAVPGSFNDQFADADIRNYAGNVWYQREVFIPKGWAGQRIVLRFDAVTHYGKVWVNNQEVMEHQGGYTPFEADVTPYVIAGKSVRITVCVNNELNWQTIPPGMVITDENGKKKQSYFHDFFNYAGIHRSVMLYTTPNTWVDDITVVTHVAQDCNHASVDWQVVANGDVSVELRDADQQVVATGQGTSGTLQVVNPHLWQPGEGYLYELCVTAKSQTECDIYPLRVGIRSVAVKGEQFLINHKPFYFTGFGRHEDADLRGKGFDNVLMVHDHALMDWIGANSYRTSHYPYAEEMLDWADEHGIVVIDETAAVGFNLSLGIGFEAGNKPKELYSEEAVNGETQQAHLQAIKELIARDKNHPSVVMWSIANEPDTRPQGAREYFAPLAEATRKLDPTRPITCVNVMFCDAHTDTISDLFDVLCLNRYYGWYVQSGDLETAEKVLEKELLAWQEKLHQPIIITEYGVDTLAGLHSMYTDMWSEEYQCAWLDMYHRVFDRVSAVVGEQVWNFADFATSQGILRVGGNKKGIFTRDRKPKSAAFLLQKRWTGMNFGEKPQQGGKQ
T1 sequence (P53341 whole entry): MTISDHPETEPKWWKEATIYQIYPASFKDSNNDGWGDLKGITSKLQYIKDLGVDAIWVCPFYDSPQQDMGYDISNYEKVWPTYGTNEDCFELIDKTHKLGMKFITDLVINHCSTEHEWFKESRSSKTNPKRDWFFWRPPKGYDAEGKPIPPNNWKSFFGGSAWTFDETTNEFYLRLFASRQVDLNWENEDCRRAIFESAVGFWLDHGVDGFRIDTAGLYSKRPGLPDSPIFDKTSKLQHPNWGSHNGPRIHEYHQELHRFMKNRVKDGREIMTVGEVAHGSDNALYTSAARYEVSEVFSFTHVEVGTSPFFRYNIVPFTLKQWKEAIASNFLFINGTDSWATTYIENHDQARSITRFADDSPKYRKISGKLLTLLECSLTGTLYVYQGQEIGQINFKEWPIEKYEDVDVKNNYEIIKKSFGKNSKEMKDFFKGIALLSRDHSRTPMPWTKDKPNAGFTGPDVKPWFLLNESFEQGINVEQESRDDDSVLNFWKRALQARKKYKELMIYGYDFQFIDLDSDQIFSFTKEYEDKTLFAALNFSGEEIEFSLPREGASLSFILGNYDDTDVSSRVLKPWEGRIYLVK
T2 sequence (Q653V7 34-885): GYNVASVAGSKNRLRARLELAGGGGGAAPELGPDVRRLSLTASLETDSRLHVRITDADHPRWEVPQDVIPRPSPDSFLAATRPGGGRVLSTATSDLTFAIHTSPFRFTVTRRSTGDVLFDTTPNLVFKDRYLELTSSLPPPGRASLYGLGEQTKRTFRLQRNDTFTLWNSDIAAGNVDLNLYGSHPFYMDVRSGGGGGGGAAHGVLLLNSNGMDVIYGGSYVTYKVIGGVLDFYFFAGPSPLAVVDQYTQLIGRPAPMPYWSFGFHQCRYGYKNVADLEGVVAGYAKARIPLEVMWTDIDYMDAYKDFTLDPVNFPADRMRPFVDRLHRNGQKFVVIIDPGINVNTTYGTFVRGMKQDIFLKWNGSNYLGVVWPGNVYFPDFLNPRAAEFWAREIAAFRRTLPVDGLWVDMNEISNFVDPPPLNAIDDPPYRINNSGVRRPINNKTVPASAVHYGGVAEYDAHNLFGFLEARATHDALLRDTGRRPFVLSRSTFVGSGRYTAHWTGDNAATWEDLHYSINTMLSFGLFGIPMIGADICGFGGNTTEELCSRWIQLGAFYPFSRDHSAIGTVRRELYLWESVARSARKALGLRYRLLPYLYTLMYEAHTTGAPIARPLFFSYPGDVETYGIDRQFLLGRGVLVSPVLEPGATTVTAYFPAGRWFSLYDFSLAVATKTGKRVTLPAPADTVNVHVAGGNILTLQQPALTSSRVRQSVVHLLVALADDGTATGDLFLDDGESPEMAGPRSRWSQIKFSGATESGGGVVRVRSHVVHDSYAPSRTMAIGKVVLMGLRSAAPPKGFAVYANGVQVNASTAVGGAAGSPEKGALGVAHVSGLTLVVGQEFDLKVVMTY
T7 sequence (P69328 25-640): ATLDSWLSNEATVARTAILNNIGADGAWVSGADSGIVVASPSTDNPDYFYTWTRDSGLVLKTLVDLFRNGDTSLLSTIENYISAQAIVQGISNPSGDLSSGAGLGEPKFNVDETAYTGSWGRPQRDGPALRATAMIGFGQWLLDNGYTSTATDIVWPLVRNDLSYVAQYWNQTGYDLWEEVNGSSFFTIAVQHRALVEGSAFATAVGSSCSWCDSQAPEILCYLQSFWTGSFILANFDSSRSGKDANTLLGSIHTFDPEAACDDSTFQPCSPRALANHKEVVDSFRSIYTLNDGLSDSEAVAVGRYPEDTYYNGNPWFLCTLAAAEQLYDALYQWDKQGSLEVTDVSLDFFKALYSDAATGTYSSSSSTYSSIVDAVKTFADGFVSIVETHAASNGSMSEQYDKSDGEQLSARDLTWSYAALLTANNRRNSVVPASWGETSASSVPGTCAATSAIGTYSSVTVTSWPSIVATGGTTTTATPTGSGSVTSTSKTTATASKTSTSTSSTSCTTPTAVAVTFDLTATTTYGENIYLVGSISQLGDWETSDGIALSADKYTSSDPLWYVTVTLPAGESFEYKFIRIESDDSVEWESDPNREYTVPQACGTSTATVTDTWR

Row | SMILES | inhibition at 200 µM (α-D-giucosidase) [%] | percentage inhibition (α-D-glucosidase [1]) [%] | inhibition at 200 µM (α-D-glucosidase [2]) [%] | percentage inhibition (β-D-glucosidase) [%] | inhibition at 200 µM (α-D-galactosidase) [%] | percentage inhibition (β-D-galactosidase) [%] | inhibition at 200 µM (α-L-fucosidase) [%] | inhibition at 200 µM (α-D-mannosidase; 0.2 mM, α-D-mannosidase, Jack bean (Canavalia ensiformis), negative value = stabilisation/promotion) [%] | percentage inhibition (β-D-mannosidase) [%] | percentage inhibition (Naringinase) [%] | percentage inhibition [3] [%] | IC50 [3] [µM] | percentage inhibition [4] [%] | inhibition at 200 µM [5] [%] | inhibition at 200 µM (Amyloglucosidase) [%] | IC50 (β-glucuronidase [6]; bovine β-glucuronidase, read-out: IC50 against the bovine β-glucuronidase) [µM] | inhibition at 200 µM (β-glucuronidase [6]) [%] | inhibition at 200 µM (β-glucuronidase [7]) [%] | inhibition at 400 µM (glycogen phosphorylase b) [%] | inhibition at 200 µM (α-D-mannosidase) [%]
1 | N=C(N)NCCCC(NCC1(O)OCC(O)C(O)C1O)C(=O)O [N2-β-D-Fructopyranos-1-yl-Arginine, 5-carbamimidamido-2-{[(2,3,4,5-tetrahydroxytetrahydro-2H-pyran-2-yl)methyl]amino}pentanoic acid] | -1.4 | −1.7 | -6 | 7.6 | 3.4 | −3.9 | -9.3 | 35.2 | −8.1 | 4.1 | 88.5 | 7.7 | −0.8 | -15.3 | 15 | 101 | 85.2 | -9 | 14.2 | –
2 | O=C(O)CCCNCC1(O)OCC(O)C(O)C1O (stereo not shown) [1-Deoxy-1-(N-γ-aminobutyric acid)fructose] | -4.2 | 0.7 | -4.2 | −0.9 | -7.1 | 1.3 | -1.3 | – | −10.3 | 0.2 | 55.3 | 200 | −6.3 | -19.2 | -2.9 | – | -1.2 | -0.8 | 5.5 | -6.2
